Measured values: the NIST ThermoML archive (doi:10.1016/j.fluid.2007.11.005)
Numbers after ± are expanded uncertainties.

Details: Liquid, Bellows volumetry

CCCCCCCCOS(=O)(=O)[O-].CCCCn1cc[n+](C)c1 [1-butyl-3-methylimidazolium octyl sulfate]
mass density [kg/m3]
Details	312.9 K	332.8 K	352.8 K	373 K	393.1 K	413 K	432.9 K	452.7 K	472.6 K
100 kPa	1060 ± 6	–	–	–	–	–	–	–	–
10000 kPa	1065 ± 6	1052 ± 6	1040 ± 6	1028 ± 6	1016 ± 6	1004 ± 5	992 ± 5	978 ± 5	964 ± 5
20000 kPa	1070 ± 6	1058 ± 6	1046 ± 6	1034 ± 6	1023 ± 6	1011 ± 6	999 ± 5	985 ± 5	972 ± 5
30000 kPa	1075 ± 6	1063 ± 6	1051 ± 6	1040 ± 6	1028 ± 6	1017 ± 6	1006 ± 5	992 ± 5	980 ± 5
40000 kPa	1080 ± 6	1068 ± 6	1056 ± 6	1045 ± 6	1034 ± 6	1023 ± 6	1012 ± 6	999 ± 5	987 ± 5
50000 kPa	1084 ± 6	1073 ± 6	1061 ± 6	1050 ± 6	1039 ± 6	1029 ± 6	1018 ± 6	1005 ± 5	993 ± 5
60000 kPa	1091 ± 6	1077 ± 6	1066 ± 6	1055 ± 6	1045 ± 6	1034 ± 6	1023 ± 6	1011 ± 6	999 ± 5
70000 kPa	1093 ± 6	1081 ± 6	1070 ± 6	1060 ± 6	1049 ± 6	1039 ± 6	1029 ± 6	1017 ± 6	1005 ± 5
80000 kPa	1097 ± 6	1085 ± 6	1075 ± 6	1064 ± 6	1054 ± 6	1044 ± 6	1034 ± 6	1022 ± 6	1011 ± 6
90000 kPa	1096 ± 6	1089 ± 6	1079 ± 6	1068 ± 6	1058 ± 6	1049 ± 6	1038 ± 6	1027 ± 6	1016 ± 6
100000 kPa	–	1093 ± 6	1083 ± 6	1073 ± 6	1063 ± 6	1053 ± 6	1043 ± 6	1032 ± 6	1021 ± 6
110000 kPa	–	1097 ± 6	1087 ± 6	1077 ± 6	1067 ± 6	1057 ± 6	1048 ± 6	1036 ± 6	1026 ± 6
120000 kPa	–	1101 ± 7	1090 ± 6	1080 ± 6	1071 ± 6	1062 ± 6	1052 ± 6	1041 ± 6	1030 ± 6
130000 kPa	–	1104 ± 7	1094 ± 6	1084 ± 6	1075 ± 6	1066 ± 6	1056 ± 6	1045 ± 6	1035 ± 6
140000 kPa	–	1107 ± 7	1097 ± 6	1088 ± 6	1078 ± 6	1069 ± 6	1060 ± 6	1049 ± 6	1039 ± 6
150000 kPa	–	1111 ± 7	1101 ± 7	1091 ± 6	1082 ± 6	1073 ± 6	1064 ± 6	1053 ± 6	1043 ± 6
160000 kPa	–	1114 ± 7	1104 ± 7	1095 ± 6	1086 ± 6	1077 ± 6	1068 ± 6	1057 ± 6	1047 ± 6
170000 kPa	–	1117 ± 7	1107 ± 7	1098 ± 7	1089 ± 6	1080 ± 6	1071 ± 6	1061 ± 6	1051 ± 6
180000 kPa	–	1120 ± 7	1111 ± 7	1102 ± 7	1093 ± 6	1084 ± 6	1075 ± 6	1065 ± 6	1055 ± 6
190000 kPa	–	1123 ± 7	1114 ± 7	1105 ± 7	1096 ± 7	1087 ± 6	1078 ± 6	1068 ± 6	1059 ± 6
200000 kPa	–	1126 ± 7	1117 ± 7	1108 ± 7	1099 ± 7	1091 ± 6	1082 ± 6	1072 ± 6	1062 ± 6

CCCCn1cc[n+](C)c1.F[B-](F)(F)F [1-butyl-3-methylimidazolium tetrafluoroborate]
mass density [kg/m3]
Details	313.1 K	332.6 K	352.6 K	372.7 K	392.8 K	412.9 K	432.6 K	452.3 K	472.2 K
100 kPa	1191 ± 3	–	–	–	–	–	–	–	–
10000 kPa	1195 ± 3	1182 ± 3	1168 ± 3	1155 ± 3	1142 ± 3	1129 ± 3	1116 ± 3	1102 ± 3	1090 ± 2
20000 kPa	1200 ± 3	1186 ± 3	1173 ± 3	1160 ± 3	1148 ± 3	1135 ± 3	1122 ± 3	1108 ± 3	1096 ± 2
30000 kPa	1204 ± 3	1191 ± 3	1178 ± 3	1165 ± 3	1153 ± 3	1140 ± 3	1127 ± 3	1115 ± 3	1102 ± 3
40000 kPa	1208 ± 3	1195 ± 3	1182 ± 3	1170 ± 3	1158 ± 3	1145 ± 3	1133 ± 3	1120 ± 3	1108 ± 3
50000 kPa	1212 ± 3	1200 ± 3	1187 ± 3	1174 ± 3	1163 ± 3	1150 ± 3	1138 ± 3	1126 ± 3	1114 ± 3
60000 kPa	1216 ± 3	1204 ± 3	1191 ± 3	1179 ± 3	1167 ± 3	1155 ± 3	1143 ± 3	1131 ± 3	1119 ± 3
70000 kPa	1220 ± 3	1208 ± 3	1195 ± 3	1183 ± 3	1172 ± 3	1160 ± 3	1148 ± 3	1136 ± 3	1124 ± 3
80000 kPa	1224 ± 3	1212 ± 3	1199 ± 3	1187 ± 3	1176 ± 3	1164 ± 3	1152 ± 3	1140 ± 3	1129 ± 3
90000 kPa	1227 ± 3	1215 ± 3	1203 ± 3	1191 ± 3	1180 ± 3	1169 ± 3	1157 ± 3	1145 ± 3	1134 ± 3
100000 kPa	1231 ± 3	1219 ± 3	1207 ± 3	1195 ± 3	1184 ± 3	1173 ± 3	1161 ± 3	1150 ± 3	1139 ± 3
110000 kPa	1234 ± 3	1223 ± 3	1211 ± 3	1199 ± 3	1188 ± 3	1177 ± 3	1165 ± 3	1154 ± 3	1143 ± 3
120000 kPa	1238 ± 3	1226 ± 3	1214 ± 3	1203 ± 3	1192 ± 3	1181 ± 3	1170 ± 3	1158 ± 3	1147 ± 3
130000 kPa	1241 ± 3	1229 ± 3	1218 ± 3	1206 ± 3	1195 ± 3	1185 ± 3	1173 ± 3	1162 ± 3	1152 ± 3
140000 kPa	1244 ± 3	1233 ± 3	1221 ± 3	1210 ± 3	1199 ± 3	1189 ± 3	1177 ± 3	1166 ± 3	1156 ± 3
150000 kPa	1248 ± 3	1236 ± 3	1225 ± 3	1213 ± 3	1203 ± 3	1192 ± 3	1181 ± 3	1170 ± 3	1160 ± 3
160000 kPa	1251 ± 3	1239 ± 3	1228 ± 3	1217 ± 3	1206 ± 3	1196 ± 3	1185 ± 3	1174 ± 3	1164 ± 3
170000 kPa	1254 ± 3	1243 ± 3	1231 ± 3	1220 ± 3	1210 ± 3	1199 ± 3	1188 ± 3	1177 ± 3	1167 ± 3
180000 kPa	1257 ± 3	1246 ± 3	1234 ± 3	1223 ± 3	1213 ± 3	1203 ± 3	1192 ± 3	1181 ± 3	1171 ± 3
190000 kPa	1260 ± 3	1249 ± 3	1237 ± 3	1227 ± 3	1216 ± 3	1206 ± 3	1195 ± 3	1185 ± 3	1175 ± 3
200000 kPa	1263 ± 3	1252 ± 3	1241 ± 3	1230 ± 3	1220 ± 3	1210 ± 3	1199 ± 3	1188 ± 3	1178 ± 3
